# In patent publication US20040009485A1, “Cellular arrays for the identification of altered gene expression” (priority 2002, published 2004):
# Values joined by “and” are separate entries in the source; they are usually repeats but may differ in a detail not shown here. Identical values can stand only once.
# Tests used:
# [1] = tested on: LuxArray 1.0 luxCDABE gene fusions; assay: LuxArray 1.0 solid phase identification of nalidixic acid responsive gene fusions; assay type: cell-based, E. coli; details: 5 μg/ml, duplicate spots; for Solid expt NA/LB, t = 2 hr / Solid expt NA/LB, t = 4 hr / Solid expt NA/LB, t = 6 hr / Solid expt NA/LB, t = 8 hr: normalized; for upregulation on LuxArray 1.0: 4 hours of nalidixic acid treatment
# Text: The genome-registered Lux-A luxCDABE gene fusion collection. (described in Example 1) provided a list of 4988 plasmid-borne gene fusions, each with boundary information relative to the E. coli genome and the orientation relative to the lux operon. An operably linked or a functional construct was defined as one consisting of a genomic fragment encompassing a promoter adjacent to the promoterless lux operon in an orientation that causes transcription initiated at the promoter to proceed into and through the lux operon. Therefore, to identify the functional subset of the collection, criteria were computationally applied to filter the list of clones first for functionality and second for redundancy. A list of definitions of documented and predicted operons (Thieffry et al. (1998) Bioinformatics 14:391-400) was used to define genomic coordinates of the operons as the translational start codon position of the first open reading frame (ORF) in the operon and the translational stop codon position of the last ORF in the operon. Additional information included the strand on which the operon is coded (direction of transcription), and gene names (common or “b” number). The lux gene fusions were filtered computationally using the following assumptions; (i) a functional transcriptional fusion would result from any genomic fragment starting greater than 50 base pairs upstream of the start codon of the first ORF and ending anywhere between the start codon of the first ORF in the operon and the stop codon of the last ORF in the operon, thereby eliminating the occurrence of a transcriptional stop signal in the construct between the promoter and the lux operon; and (ii) the promoter contained in the genomic fragment must face in the correct orientation relative to the lux operon (pictorially represented in FIG. 6). Finally, in cases when more then one clone fit the criteria for a single operon, only the one construct containing the genomic fragment representing the greatest amount of upstream sequence was retained thereby eliminating redundancy. The PERL code used and the resulting list of 689 selected gene fusions are found in Scheme 1 and Table 18 (following Example 7). These fusions represent 27% of the 2584 known and predicted transcriptional units in the E. coli genome. Individual cultures of strains containing the identified gene fusions were rearranged from the ninety original culture plates to create a set of sixteen 96-well microplates containing all the identified fusions, duplicated with side by side symmetry, including appropriately placed controls. These 16 plates represent were used to generate the cellular arrays for use in subsequent analyses.
# The E. coli strains were grown overnight at 37° C. in […]) LB medium supplemented with 100 μg/ml ampicillin in a set of sixteen 96-well dishes. These cultures were designated “printing plates” and were used as the cell source to manufacture the arrays. Porous membranes (Biodyne B, Nunc) were sterilized with UV illumination for 10 min then placed in contact with pre-warmed of solid LB growth media in a culture dish (OmniTray, Nunc). Printing of 4×4 subarrays was accomplished using a BioMek 2000 (Beckman Coulter) equipped with a High Density Replication Tool (HDRT). […] After sterilization, the pins are air-dried prior to the next transfer. The E. coli strains in the LuxArray were printed onto an approximately 8×12 cm membrane in two sets of triplicates.
# Arrays were printed from fresh overnight cultures onto membranes on plates containing LB media. Alter 6 hr of growth at 37° C. membranes were moved to pre-warmed plates containing either LB media or LB media supplemented with 5 μg/ml nalidixic acid then replaced at 37° C. to continue growing. Images were collected for each array every two hours from 0-8 hr after relocation using a cooled CCD camera (FluorChem 8000: f0.85 lens, 2 min exposure, AlphaInnotech). […]
# luxCDABE gene fusions = assay: Retest of nalidixic acid upregulated gene fusions in liquid medium; assay type: cell-based, E. coli; details: for Liquid expt. NA/LB t = 2 hr: at conc of max induction; for # of conc with >1.5 fold up: seven conc 80-1.2 μg/ml
# Procedure: Several concentrations of nalidixic acid were used because the differences in responses between liquid and solid growth were not known. Light production of 100 μl duplicate cultures at 37° C. was quantitated using a 96 well plate luminometer (Luminoskan Ascent, Labsystems). […] It should be noted that the liquid medium tests were not corrected for growth inhibition by nalidixic acid.
# [2] = 1pxA 1pxB rnhB dnaE fusion (lux-a.pk061.c3), listed as NA
# [3] = b1728 fusion (lux-a.pk033.c5), listed as NA
# [4] = b1936 fusion (lux-a.pk0019.g1), listed as NA
# [5] = dinG ybiB fusion (lux-a.pk0024.f5), listed as NA
# [6] = dinP fusion (lux-a.pk055.a3), listed as NA
# [7] = frvR frvX frvB frvA fusion (lux-a.pk046.e6)
# [8] = fusion (lux-a.pk0015.d6), listed as NA
# [9] = oraA fusion (lux-a.pk058.f5), listed as NA
# [10] = uvrA fusion (lux-a.pk0001.b6), listed as NA
# [11] = yaaF fusion (lux-a.pk031.e7), listed as NA
# [12] = yfhJ fdx hscA yfhE fusion (lux-a.pk0019.g2)
# [13] = yfhJ fdx hscA yfhE fusion (lux-a.pk0019.g2), listed as NA
# [14] = 1pxA 1pxB rnhB dnaE fusion (lux-a.pk061.c3)
# [15] = dinG ybiB fusion (lux-a.pk0024.f5)
structure (smiles),measurement,setting,value
"CCn1cc(C(=O)O)c(=O)c2ccc(C)nc21 [Nalidixic acid, nalidixic acid]","Solid expt NA/LB, t = 2 hr",[1]; [2],3.5 and 2.7
same,"Solid expt NA/LB, t = 4 hr",[1]; [2],3.1 and 3.5
same,"Solid expt NA/LB, t = 6 hr",[1]; [2],2.8 and 3.0
same,"Solid expt NA/LB, t = 8 hr",[1]; [2],1.7 and 1.9
same,"Solid expt NA/LB, t = 2 hr",[1]; [3],3.7 and 2.1
same,"Solid expt NA/LB, t = 4 hr",[1]; [3],4.3 and 3.1
same,"Solid expt NA/LB, t = 6 hr",[1]; [3],3.2 and 3.3
same,"Solid expt NA/LB, t = 8 hr",[1]; [3],2.6 and 2.5
same,"Solid expt NA/LB, t = 2 hr",[1]; [4],2.5 and 4.4
same,"Solid expt NA/LB, t = 4 hr",[1]; [4],7.7 and 8.2
same,"Solid expt NA/LB, t = 6 hr",[1]; [4],9.7 and 15.5
same,"Solid expt NA/LB, t = 8 hr",[1]; [4],7.1 and 10.2
same,"Solid expt NA/LB, t = 2 hr",[1]; [5],2.5 and 3.4
same,"Solid expt NA/LB, t = 4 hr",[1]; [5],3.7 and 4.2
same,"Solid expt NA/LB, t = 6 hr",[1]; [5],3.5 and 3.1
same,"Solid expt NA/LB, t = 8 hr",[1]; [5],2.9 and 2.6
same,"Solid expt NA/LB, t = 2 hr",[1]; [6],3.1 and 5.5
same,"Solid expt NA/LB, t = 6 hr",[1]; [6],4.2 and 8.1
same,"Solid expt NA/LB, t = 4 hr",[1]; [7],2.3
same,"Solid expt NA/LB, t = 2 hr","[1]; frvR frvX frvB frvA fusion (lux-a.pk046.e6), listed as NA",2.8 and 2.1
same,"Solid expt NA/LB, t = 2 hr",[1]; [8],2.3 and 2.2
same,"Solid expt NA/LB, t = 4 hr",[1]; [8],6.4 and 4.1
same,"Solid expt NA/LB, t = 6 hr",[1]; [8],2.7 and 1.9
same,"Solid expt NA/LB, t = 8 hr",[1]; [8],0.6 and 0.8
same,"Solid expt NA/LB, t = 2 hr",[1]; [9],5.1 and 4.7
same,"Solid expt NA/LB, t = 4 hr",[1]; [9],7.9 and 7.7
same,"Solid expt NA/LB, t = 6 hr",[1]; [9],5.9 and 5.6
same,"Solid expt NA/LB, t = 8 hr",[1]; [9],3.9 and 3.8
same,upregulation on LuxArray 1.0,[1]; ruvA fusion,1.7 fold and 2.1 fold
same,"Solid expt NA/LB, t = 2 hr",[1]; [10],2.5 and 2.9
same,"Solid expt NA/LB, t = 4 hr",[1]; [10],2.3 and 2.4
same,"Solid expt NA/LB, t = 6 hr",[1]; [10],1.6 and 1.1
same,"Solid expt NA/LB, t = 8 hr",[1]; [10],1.0 and 0.6
same,upregulation on LuxArray 1.0,[1]; uvrD fusion,1.6 fold and 1.9 fold
same,"Solid expt NA/LB, t = 2 hr",[1]; [11],2.1 and 2.0
same,"Solid expt NA/LB, t = 4 hr",[1]; [11],2.0 and 2.1
same,"Solid expt NA/LB, t = 6 hr",[1]; [11],1.3 and 1.8
same,"Solid expt NA/LB, t = 8 hr",[1]; [11],1.0 and 1.5
same,"Solid expt NA/LB, t = 2 hr",[1]; [12],2.1
same,"Solid expt NA/LB, t = 4 hr",[1]; [13],2.0 and 2.2
same,"Solid expt NA/LB, t = 6 hr",[1]; [13],1.7 and 1.5
same,"Solid expt NA/LB, t = 8 hr",[1]; [13],1.4 and 1.3
same,"Solid expt NA/LB, t = 4 hr","[1]; yigN fusion (lux-a.pk046.f11), listed as NA",2.5 and 4.3
same,Nal conc of max induction in liquid,luxCDABE gene fusions; [14],2.5 µg/mL
same,Liquid expt. NA/LB t = 2 hr,luxCDABE gene fusions; [14],1.82
same,# of conc with >1.5 fold up,luxCDABE gene fusions; [14],3
same,Nal conc of max induction in liquid,luxCDABE gene fusions; b1728 fusion (lux-a.pk033.c5),5 µg/mL
same,Liquid expt. NA/LB t = 2 hr,luxCDABE gene fusions; b1728 fusion (lux-a.pk033.c5),3.67
same,# of conc with >1.5 fold up,luxCDABE gene fusions; b1728 fusion (lux-a.pk033.c5),7
same,Nal conc of max induction in liquid,luxCDABE gene fusions; b1936 fusion (lux-a.pk0019.g1),10 µg/mL
same,Liquid expt. NA/LB t = 2 hr,luxCDABE gene fusions; b1936 fusion (lux-a.pk0019.g1),2.34
same,# of conc with >1.5 fold up,luxCDABE gene fusions; b1936 fusion (lux-a.pk0019.g1),6
same,Nal conc of max induction in liquid,luxCDABE gene fusions; [15],5 µg/mL
same,Liquid expt. NA/LB t = 2 hr,luxCDABE gene fusions; [15],4.18
same,# of conc with >1.5 fold up,luxCDABE gene fusions; [15],6
same,Nal conc of max induction in liquid,luxCDABE gene fusions; dinP fusion (lux-a.pk055.a3),5 µg/mL
same,Liquid expt. NA/LB t = 2 hr,luxCDABE gene fusions; dinP fusion (lux-a.pk055.a3),7.60
same,# of conc with >1.5 fold up,luxCDABE gene fusions; dinP fusion (lux-a.pk055.a3),7
same,Nal conc of max induction in liquid,luxCDABE gene fusions; [7],20 µg/mL
same,Liquid expt. NA/LB t = 2 hr,luxCDABE gene fusions; [7],1.46
same,# of conc with >1.5 fold up,luxCDABE gene fusions; [7],0
same,Nal conc of max induction in liquid,luxCDABE gene fusions; fusion (lux-a.pk0015.d6),20 µg/mL
same,Liquid expt. NA/LB t = 2 hr,luxCDABE gene fusions; fusion (lux-a.pk0015.d6),2.71
same,# of conc with >1.5 fold up,luxCDABE gene fusions; fusion (lux-a.pk0015.d6),6
same,Nal conc of max induction in liquid,luxCDABE gene fusions; oraA fusion (lux-a.pk058.f5),10 µg/mL
same,Liquid expt. NA/LB t = 2 hr,luxCDABE gene fusions; oraA fusion (lux-a.pk058.f5),7.19
same,# of conc with >1.5 fold up,luxCDABE gene fusions; oraA fusion (lux-a.pk058.f5),7
same,Nal conc of max induction in liquid,luxCDABE gene fusions; yaaF fusion (lux-a.pk031.e7),2.5 µg/mL
same,Liquid expt. NA/LB t = 2 hr,luxCDABE gene fusions; yaaF fusion (lux-a.pk031.e7),1.85
same,# of conc with >1.5 fold up,luxCDABE gene fusions; yaaF fusion (lux-a.pk031.e7),3
same,Nal conc of max induction in liquid,luxCDABE gene fusions; [12],1.2 µg/mL
same,Liquid expt. NA/LB t = 2 hr,luxCDABE gene fusions; [12],1.02
same,# of conc with >1.5 fold up,luxCDABE gene fusions; [12],0
same,Nal conc of max induction in liquid,luxCDABE gene fusions; yigN fusion (lux-a.pk046.f11),1.2 µg/mL
same,Liquid expt. NA/LB t = 2 hr,luxCDABE gene fusions; yigN fusion (lux-a.pk046.f11),2.54
same,# of conc with >1.5 fold up,luxCDABE gene fusions; yigN fusion (lux-a.pk046.f11),5
